Reference: PubChem BioAssay (NCI)
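How tested: cells in 96-well plates exposed to compound for 48 hours at five concentrations. Here, GI50 denotes the concentration required for 50% inhibition of growth. The concentration for full growth arrest is given as TGI.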

Legend:
Assay in all cases: NCI anticancer screen, dose series, 48 h
NCI/ADR-RES ovarian = test system: NCI/ADR-RES ovarian
MOLT-4 leukemia = test system: MOLT-4 leukemia
786-0 renal = test system: 786-0 renal
NCI-H522 lung = test system: NCI-H522 lung
HCT-15 colon = test system: HCT-15 colon
PC-3 prostate = test system: PC-3 prostate
OVCAR-5 ovarian = test system: OVCAR-5 ovarian
HCT-116 colon = test system: HCT-116 colon
T-47D breast = test system: T-47D breast
HOP-62 NSCLC = test system: HOP-62 NSCLC
MDA-MB-435 = test system: MDA-MB-435
HL-60(TB) leukemia = test system: HL-60(TB) leukemia
HOP-92 NSCLC = test system: HOP-92 NSCLC
HCC-2998 colon = test system: HCC-2998 colon
M14 melanoma = test system: M14 melanoma
SNB-19 CNS = test system: SNB-19 CNS
MCF7 breast = test system: MCF7 breast
UO-31 renal = test system: UO-31 renal
KM12 colon = test system: KM12 colon
SK-MEL-28 melanoma = test system: SK-MEL-28 melanoma
IGROV1 ovarian = test system: IGROV1 ovarian
RXF 393 renal = test system: RXF 393 renal
HS 578T breast = test system: HS 578T breast
CCRF-CEM leukemia = test system: CCRF-CEM leukemia
SNB-75 CNS = test system: SNB-75 CNS
UACC-257 melanoma = test system: UACC-257 melanoma
CAKI-1 renal = test system: CAKI-1 renal
SW-620 colon = test system: SW-620 colon

O=[N+]([O-])c1cc(S(=O)(=O)Oc2ccccc2)ccc1Cl
TGI (NCI/ADR-RES ovarian): 45.3 µM | GI50 (MOLT-4 leukemia): 2170 nM | TGI (MOLT-4 leukemia): 45.1 µM | GI50 (786-0 renal): 4.65 µM | TGI (786-0 renal): 15.5 µM | GI50 (NCI-H522 lung): 1990 nM | TGI (NCI-H522 lung): 3.62 µM | GI50 (HCT-15 colon): 3.56 µM | TGI (HCT-15 colon): 12.5 µM | GI50 (PC-3 prostate): 2050 nM | TGI (PC-3 prostate): 4.45 µM | GI50 (OVCAR-5 ovarian): 2290 nM | TGI (OVCAR-5 ovarian): 5.17 µM | GI50 (HCT-116 colon): 1850 nM | TGI (HCT-116 colon): 3.43 µM | GI50 (T-47D breast): 2210 nM | TGI (T-47D breast): 5.38 µM | GI50 (HOP-62 NSCLC): 6.06 µM | TGI (HOP-62 NSCLC): 19.2 µM | GI50 (MDA-MB-435): 1640 nM | TGI (MDA-MB-435): 3.09 µM | GI50 (HL-60(TB) leukemia): 1920 nM | TGI (HL-60(TB) leukemia): 6.84 µM | GI50 (HOP-92 NSCLC): 1750 nM | TGI (HOP-92 NSCLC): 3.39 µM | GI50 (HCC-2998 colon): 1740 nM | TGI (HCC-2998 colon): 3.33 µM | GI50 (M14 melanoma): 2060 nM | TGI (M14 melanoma): 4.28 µM | GI50 (SNB-19 CNS): 3.11 µM | TGI (SNB-19 CNS): 11.1 µM | GI50 (MCF7 breast): 2060 nM | TGI (MCF7 breast): 4.31 µM | GI50 (UO-31 renal): 1750 nM | TGI (UO-31 renal): 3.17 µM | GI50 (KM12 colon): 1470 nM | TGI (KM12 colon): 2890 nM | GI50 (SK-MEL-28 melanoma): 2670 nM | TGI (SK-MEL-28 melanoma): 6.4 µM | GI50 (IGROV1 ovarian): 1770 nM | TGI (IGROV1 ovarian): 3.22 µM | GI50 (RXF 393 renal): 5.57 µM | TGI (RXF 393 renal): 17.7 µM | GI50 (HS 578T breast): 2700 nM | TGI (HS 578T breast): 6.73 µM | GI50 (CCRF-CEM leukemia): 594 nM | TGI (CCRF-CEM leukemia): 3.53 µM | GI50 (SNB-75 CNS): 2540 nM | TGI (SNB-75 CNS): 6.5 µM | GI50 (UACC-257 melanoma): 1600 nM | TGI (UACC-257 melanoma): 3.1 µM | GI50 (CAKI-1 renal): 1530 nM | TGI (CAKI-1 renal): 2890 nM | GI50 (SW-620 colon): 1560 nM | TGI (SW-620 colon): 3.59 µM
